From patent publication US7704994B2, “Benzazepine derivatives for the treatment of neurological disorders” (Glaxo Group Limited, priority 2002, dated 2010) come the findings set out here.

Values joined by “and” are separate entries in the source; they are usually repeats but may differ in a detail not shown here. Equal values may be shown once. Read-outs that look alike come from different tables or passages of the source.

The experiment has as its target T1, human histamine H3 receptor (Homo sapiens, UniProt Q9Y5N1).
T1 construct: expressed in transfected cells; host or cells: CHO K1 cells carrying pSwitch, transfected with pGeneH3 and induced with mifepristone; membranes of clone 3H3
Briefly: Histamine H3 functional antagonist assay. It counts as biochemical. How it is done:
A membrane preparation containing histamine H3 receptors may be prepared in accordance with the following procedures:
Ligated DNA was transformed into competent DH5α E. coli host bacterial cells and plated onto Luria Broth (LB) agar containing Zeocin™ (an antibiotic which allows the selection of cells expressing the sh ble gene which is present on pGene and pSwitch) at 50 μg ml^−1. Colonies containing the re-ligated plasmid were identified by restriction analysis. DNA for transfection into mammalian cells was prepared from 250 ml cultures of the host bacterium containing the pGeneH3 plasmid and isolated using a DNA preparation kit (Qiagen Midi-Prep) as per manufacturers guidelines (Qiagen).
CHO K1 cells previously transfected with the pSwitch regulatory plasmid (InVitrogen) were seeded at 2×10e6 cells per T75 flask in Complete Medium, containing Hams F12 (GIBCOBRL, Life Technologies) medium supplemented with 10% v/v dialysed foetal bovine serum, L-glutamine, and hygromycin (100 μg ml^−1), 24 hours prior to use. Plasmid DNA was transfected into the cells using Lipofectamine plus according to the manufacturers guidelines (InVitrogen). 48 hours post transfection cells were placed into complete medium supplemented with 500 μg ml^−1 Zeocin™.
10-14 days post selection 10 nM Mifepristone (InVitrogen), was added to the culture medium to induce the expression of the receptor. […] Approximately 1×10e7 cells were examined for receptor expression by staining with a rabbit polyclonal antibody, 4a, raised against the N-terminal domain of the histamine H3 receptor, incubated on ice for 60 minutes, followed by two washes in sorting medium. […] Following two further washes with Sorting Medium, cells were filtered through a 50 μm Filcon™ (BD Biosciences) and then analysed on a FACS Vantage SE Flow Cytometer fitted with an Automatic Cell Deposition Unit. […] Positively stained cells were sorted as single cells into 96-well plates, containing Complete Medium containing 500 μg ml^−1 Zeocin™ and allowed to expand before reanalysis for receptor expression via antibody and ligand binding studies.
All steps of the protocol are carried out at 4° C. and with pre-cooled reagents. […] The cells are then homogenised by 2×15 second bursts in a 1 litre glass Waring blender, followed by centrifugation at 500 g for 20 minutes. The supernatant is then spun at 48,000 g for 30 minutes. […]
The plate is then incubated on a shaker at room temperature for 30 minutes followed by centrifugation for 5 minutes at 1500 rpm. The plate is read between 3 and 6 hours after completion of centrifuge run in a Wallac Microbeta counter on a 1 minute normalised tritium count protocol. Data is analysed using a 4-parameter logistic equation. […]

Where [1] appears, read: membranes of CHO K1 cells expressing human histamine H3, [35S]GTPγS SPA, histamine 0.3 μM, read-out: antagonism (pKb) (converted).

T1 sequence (Q9Y5N1 whole entry): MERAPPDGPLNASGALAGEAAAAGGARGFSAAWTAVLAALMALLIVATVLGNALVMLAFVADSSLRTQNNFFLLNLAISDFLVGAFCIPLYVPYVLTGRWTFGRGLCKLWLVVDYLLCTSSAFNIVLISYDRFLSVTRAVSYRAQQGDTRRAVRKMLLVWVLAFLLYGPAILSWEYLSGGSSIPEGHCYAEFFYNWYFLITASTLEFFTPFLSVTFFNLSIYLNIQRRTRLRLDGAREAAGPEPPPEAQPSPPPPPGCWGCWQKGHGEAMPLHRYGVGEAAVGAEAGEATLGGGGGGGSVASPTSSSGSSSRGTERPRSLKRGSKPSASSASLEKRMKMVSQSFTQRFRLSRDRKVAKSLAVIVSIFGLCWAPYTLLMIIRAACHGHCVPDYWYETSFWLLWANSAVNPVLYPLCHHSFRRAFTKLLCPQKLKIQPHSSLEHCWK

On to `O=C(N1CCOCC1)N1CCC(Oc2ccc3c(c2)CCN(C2CCC2)CC3)CC1` [Example 52], for which the Kb under setting [1] is 0.0316 to 1 nM.
On the same count and under the same terms, under `CNC(=O)c1ccc(Oc2ccc3c(c2)CCN(C2CCC2)CC3)nc1` [Example 121, 6-(3-Cyclobutyl-2,3,4,5-tetrahydro-1H-benzo[d]azepin-7-yloxy)-N-methyl-nicotinamide] stands 0.0316 to 1 nM and < 0.316 nM.
Molecule `c1ccc(COc2ccc3c(c2)CCN(C2CCC2)CC3)cc1` [Example 1, 7-Benzyloxy-3-cyclobutyl-2,3,4,5-tetrahydro-1H-benzo[d]azepine] displayed a Kb of 0.0316 to 1 nM.
For the molecule `O=C1CCCN1c1ccc(Oc2ccc3c(c2)CCN(C2CCC2)CC3)nc1` [Example 217, 1-{6-[(3-Cyclobutyl-2,3,4,5-tetrahydro-1H-3-benzazepin-7-yl)oxy]-3-pyridinyl}-2-pyrrolidinone], the Kb under setting [1] was 0.0316 to 1 nM.
